Test results: US8729081B2, “Compositions and methods for treating alcohol use disorders, pain and other diseases” (VM Discovery Inc., priority 2008, dated 2014)
pIC50: −log10 of the molar value.

Key:
Assay type in all cases: biochemical
PKCε (h) = biological target: T1, PKCε (h) (Homo sapiens, UniProt Q02156); assay: In vitro PKCε kinase assay (radiometric, [γ-33P-ATP], HotSpot); details: recombinant human PKCε, 10 μM ATP; read-out: IC50 in antagonizing the PKCε
T1 construct: host or cells: insect cells
T1 sequence (Q02156 1-737): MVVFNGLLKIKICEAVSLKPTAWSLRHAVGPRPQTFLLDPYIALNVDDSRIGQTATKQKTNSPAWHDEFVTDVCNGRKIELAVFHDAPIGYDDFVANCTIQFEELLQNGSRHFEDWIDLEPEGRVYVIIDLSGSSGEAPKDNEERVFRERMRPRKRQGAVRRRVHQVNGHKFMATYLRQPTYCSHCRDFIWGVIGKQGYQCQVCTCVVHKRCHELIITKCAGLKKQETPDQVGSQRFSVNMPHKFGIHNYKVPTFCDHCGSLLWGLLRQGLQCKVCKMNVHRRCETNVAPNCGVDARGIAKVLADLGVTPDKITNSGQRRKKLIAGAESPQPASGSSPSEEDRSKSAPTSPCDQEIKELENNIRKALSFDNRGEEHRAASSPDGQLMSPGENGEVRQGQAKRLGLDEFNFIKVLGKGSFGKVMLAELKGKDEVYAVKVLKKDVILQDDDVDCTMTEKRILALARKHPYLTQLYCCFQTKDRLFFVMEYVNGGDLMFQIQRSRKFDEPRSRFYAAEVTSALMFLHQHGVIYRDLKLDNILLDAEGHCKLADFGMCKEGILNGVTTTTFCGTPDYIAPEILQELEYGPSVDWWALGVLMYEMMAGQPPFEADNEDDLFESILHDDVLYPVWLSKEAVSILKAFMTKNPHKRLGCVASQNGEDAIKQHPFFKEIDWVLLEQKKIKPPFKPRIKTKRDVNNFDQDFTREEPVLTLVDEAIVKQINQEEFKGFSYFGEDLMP
Experimental: There are many in vitro commercially available and validated bioassays (Ma, H., et al, Expert Opin Drug Discov. 2008 June; 3(6): 607-621 and references therein) which can be used to characterize the activities of compounds of the present invention against PKCε protein kinase. Compounds can be tested against the activity of recombinant PKCε. In a final reaction volume of 25 μL, PKCε (h) (0.4 nM, Human recombinant protein expressed in insect cells. Mw=83.7 kDa) is incubated with kinase buffer (20 mM HEPES-HCl, pH 7.5, 10 mM MgCl2, 1 mM EGTA, 0.02% Brij35, 0.1 mM Na3VO4, 0.02 mg/ml BSA, 2 mM DTT, and 1% DMSO), 0.1 mg/mL phosphatidylserine, 10 μg/mL diacylglycerol, 20 μM S25-PKC peptide substrate (RFARKGSLRQKNV-OH, Mw=1561 Da), 10 mM MgAcetate and 10 μM [γ-33P-ATP] (specific activity approx. 500 cpm/pmol). The reaction is initiated by the addition of the MgATP mix. After incubation for 40 minutes at room temperature, the reaction is stopped by the addition of 5 μL of a 3% phosphoric acid solution. 10 μL of the reaction is then spotted onto a P30 filtermat and washed three times for 5 minutes in 75 mM phosphoric acid and once in methanol prior to drying and scintillation counting Control samples are incubated without inhibitor to measure maximal activity or with the general kinase inhibitor Staurosporine (5 μM) to measure complete inhibition. For each compound the % inhibition can be calculated by the formula, or by curve fits: % Inhibition=(Max activity−Activity with compound)/(Max activity−Activity with Control)*100. Compounds with inhibitory activity are assayed using at least 5 concentrations (1 nM-300 μM). Concentrations are adjusted to generate a complete dose-response curve. Each sample is assayed in duplicate and each experiment is repeated three times. Results are fitted by non-linear regression analysis to a sigmoidal dose-response curve with variable slope to calculate Hill slope, log IC50 and Imax values for each inhibitor, using the program Prism 5 (GraphPad Software, Inc., San Diego, Calif.).
(§1) Kinase profiling was performed using HotSpot technology (Reaction Biology Corp. 11 Malvern, Pa., USA). This technology is a radioisotope-based P81 filter-binding assay. Compound of the present invention were dissolved in pure DMSO to make a 10 mM stock, then diluted in pure DMSO to make a serial dilution based on the IC50 ranges. PKCε (h) (0.4 nM, human recombinant protein expressed in insect cells. Mw=83.7 kDa) and substrate (20 μM peptide substrate, [RFARKGSLRQKNV]) were diluted in the reaction buffer (20 mM HEPES-HCl, pH 7.5, 10 mM MgCl2, 1 mM EGTA, 0.02% Brij35, 0.1 mM Na3VO4, 0.02 mg/ml BSA, 2 mM DTT, and 1% DMSO), and then 5 nL of compound was delivered into PKCε (h) and substrate mixture by acoustic technology using Echo 550 (LabCyte Inc., Sunnyvale, Calif.). The reaction was initiated by the addition of [γ-33P-ATP] into the reaction mixture (final concentration was 10 μM) and stopped after at least 40 min incubation at room temperature. The unreacted free 33P-ATP was washed away before detection.
The intrinsic PKCε antagonist activity of a compound which may be used in the present invention may be determined by these assays. […] Such a result is indicative of the intrinsic activity of the compounds in use as antagonists of PKCε.

PKCbeta1 = biological target: T2, PKCbeta1 (Homo sapiens, UniProt P05771); assay: Kinase profiling
T2 construct: purchased Reaction Biology Corp
T2 sequence (P05771 whole entry): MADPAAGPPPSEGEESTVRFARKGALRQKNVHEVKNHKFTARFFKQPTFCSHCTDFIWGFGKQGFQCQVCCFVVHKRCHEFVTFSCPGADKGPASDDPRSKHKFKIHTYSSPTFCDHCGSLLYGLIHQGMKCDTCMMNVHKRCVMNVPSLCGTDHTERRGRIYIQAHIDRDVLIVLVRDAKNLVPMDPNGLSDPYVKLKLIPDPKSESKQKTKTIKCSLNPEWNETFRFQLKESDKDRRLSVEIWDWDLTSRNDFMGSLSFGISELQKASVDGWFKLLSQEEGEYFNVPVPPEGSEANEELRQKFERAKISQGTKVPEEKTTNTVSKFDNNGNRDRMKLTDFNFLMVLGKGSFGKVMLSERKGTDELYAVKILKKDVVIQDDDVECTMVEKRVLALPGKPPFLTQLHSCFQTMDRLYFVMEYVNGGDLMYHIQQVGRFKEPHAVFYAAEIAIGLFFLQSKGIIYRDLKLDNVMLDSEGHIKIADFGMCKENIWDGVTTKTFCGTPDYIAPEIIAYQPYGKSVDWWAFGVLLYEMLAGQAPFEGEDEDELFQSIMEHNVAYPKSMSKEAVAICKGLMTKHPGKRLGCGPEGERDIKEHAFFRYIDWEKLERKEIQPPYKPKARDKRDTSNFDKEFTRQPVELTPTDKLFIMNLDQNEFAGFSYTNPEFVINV
Experimental: [The procedure below names another target; the source lists this target under the same test.] as §1

PKCbeta2 = biological target: T3, PKCbeta2 (Homo sapiens, UniProt P05771); assay: Kinase profiling
T3 construct: purchased Reaction Biology Corp
T3 sequence (P05771 1-673 isoform P05771-2): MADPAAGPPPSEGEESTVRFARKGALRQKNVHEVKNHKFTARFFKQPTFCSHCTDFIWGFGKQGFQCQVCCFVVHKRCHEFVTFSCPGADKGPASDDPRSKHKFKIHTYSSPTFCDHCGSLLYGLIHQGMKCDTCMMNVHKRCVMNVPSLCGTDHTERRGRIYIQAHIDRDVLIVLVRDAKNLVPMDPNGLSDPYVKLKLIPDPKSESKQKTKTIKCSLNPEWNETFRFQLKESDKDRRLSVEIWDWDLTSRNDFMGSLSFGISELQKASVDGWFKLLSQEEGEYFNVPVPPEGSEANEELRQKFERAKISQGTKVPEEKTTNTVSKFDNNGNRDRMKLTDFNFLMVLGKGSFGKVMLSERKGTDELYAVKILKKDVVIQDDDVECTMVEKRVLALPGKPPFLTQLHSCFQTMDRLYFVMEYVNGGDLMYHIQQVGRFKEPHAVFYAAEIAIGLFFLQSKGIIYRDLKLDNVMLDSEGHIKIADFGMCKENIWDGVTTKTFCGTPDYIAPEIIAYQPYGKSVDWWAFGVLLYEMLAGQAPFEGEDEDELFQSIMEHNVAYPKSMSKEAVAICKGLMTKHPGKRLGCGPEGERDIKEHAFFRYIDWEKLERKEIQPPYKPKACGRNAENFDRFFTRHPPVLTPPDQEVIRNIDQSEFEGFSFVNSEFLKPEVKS
Experimental: [The procedure below names another target; the source lists this target under the same test.] as §1

FYN = biological target: T4, FYN (Homo sapiens, UniProt P06241); assay: Kinase profiling
T4 construct: purchased Reaction Biology Corp
Experimental: [The procedure below names another target; the source lists this target under the same test.] as §1

PDPK1 = biological target: T5, PDPK1 (Homo sapiens, UniProt O15530); assay: Kinase profiling
T5 construct: purchased Reaction Biology Corp
Experimental: [The procedure below names another target; the source lists this target under the same test.] as §1

PKCeta = biological target: T6, PKCeta (Homo sapiens, UniProt P24723); assay: Kinase profiling
T6 construct: purchased Reaction Biology Corp
Experimental: [The procedure below names another target; the source lists this target under the same test.] as §1

ROCK1 = biological target: T7, ROCK1 (Homo sapiens, UniProt Q13464); assay: Kinase profiling
T7 construct: purchased Reaction Biology Corp
T7 sequence (Q13464 whole entry): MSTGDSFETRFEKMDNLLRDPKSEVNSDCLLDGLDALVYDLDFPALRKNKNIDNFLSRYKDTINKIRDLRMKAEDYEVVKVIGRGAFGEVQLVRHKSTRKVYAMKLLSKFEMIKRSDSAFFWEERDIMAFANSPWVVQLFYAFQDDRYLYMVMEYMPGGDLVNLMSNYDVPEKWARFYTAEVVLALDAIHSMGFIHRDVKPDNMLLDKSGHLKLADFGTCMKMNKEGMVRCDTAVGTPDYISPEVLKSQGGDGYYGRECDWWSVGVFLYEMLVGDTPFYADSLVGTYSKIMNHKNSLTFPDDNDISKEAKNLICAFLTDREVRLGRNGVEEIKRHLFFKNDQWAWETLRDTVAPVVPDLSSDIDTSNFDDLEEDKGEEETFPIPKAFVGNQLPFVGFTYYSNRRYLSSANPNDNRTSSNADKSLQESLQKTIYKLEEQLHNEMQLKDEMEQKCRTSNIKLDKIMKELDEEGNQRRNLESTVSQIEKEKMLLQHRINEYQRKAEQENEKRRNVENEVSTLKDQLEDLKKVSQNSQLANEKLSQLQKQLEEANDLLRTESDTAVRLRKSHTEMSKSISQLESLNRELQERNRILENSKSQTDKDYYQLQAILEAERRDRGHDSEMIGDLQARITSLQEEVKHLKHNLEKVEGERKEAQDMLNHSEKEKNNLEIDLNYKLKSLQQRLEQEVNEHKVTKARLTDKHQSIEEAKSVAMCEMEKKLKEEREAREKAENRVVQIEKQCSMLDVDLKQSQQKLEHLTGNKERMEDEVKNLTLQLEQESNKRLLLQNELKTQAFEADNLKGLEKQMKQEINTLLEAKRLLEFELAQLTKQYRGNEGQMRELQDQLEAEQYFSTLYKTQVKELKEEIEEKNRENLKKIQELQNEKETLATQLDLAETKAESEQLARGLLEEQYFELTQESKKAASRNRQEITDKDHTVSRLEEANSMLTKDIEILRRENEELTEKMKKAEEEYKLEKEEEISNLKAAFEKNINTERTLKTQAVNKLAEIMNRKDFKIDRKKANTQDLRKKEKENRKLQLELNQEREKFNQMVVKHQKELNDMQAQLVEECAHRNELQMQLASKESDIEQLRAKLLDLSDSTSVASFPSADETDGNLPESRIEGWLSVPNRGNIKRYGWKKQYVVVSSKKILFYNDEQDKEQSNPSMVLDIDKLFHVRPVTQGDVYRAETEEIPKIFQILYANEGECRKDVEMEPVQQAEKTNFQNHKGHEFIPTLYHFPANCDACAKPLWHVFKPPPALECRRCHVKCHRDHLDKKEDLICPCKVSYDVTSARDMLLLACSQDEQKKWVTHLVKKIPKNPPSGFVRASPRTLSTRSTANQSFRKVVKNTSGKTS
Experimental: [The procedure below names another target; the source lists this target under the same test.] as §1

PKCgamma = biological target: T8, PKCgamma (Homo sapiens, UniProt P05129); assay: Kinase profiling
T8 construct: purchased Reaction Biology Corp
Experimental: [The procedure below names another target; the source lists this target under the same test.] as §1

PKCdelta = biological target: T9, PKCdelta (Homo sapiens, UniProt Q05655); assay: Kinase profiling
T9 construct: purchased Reaction Biology Corp
T9 sequence (Q05655 whole entry): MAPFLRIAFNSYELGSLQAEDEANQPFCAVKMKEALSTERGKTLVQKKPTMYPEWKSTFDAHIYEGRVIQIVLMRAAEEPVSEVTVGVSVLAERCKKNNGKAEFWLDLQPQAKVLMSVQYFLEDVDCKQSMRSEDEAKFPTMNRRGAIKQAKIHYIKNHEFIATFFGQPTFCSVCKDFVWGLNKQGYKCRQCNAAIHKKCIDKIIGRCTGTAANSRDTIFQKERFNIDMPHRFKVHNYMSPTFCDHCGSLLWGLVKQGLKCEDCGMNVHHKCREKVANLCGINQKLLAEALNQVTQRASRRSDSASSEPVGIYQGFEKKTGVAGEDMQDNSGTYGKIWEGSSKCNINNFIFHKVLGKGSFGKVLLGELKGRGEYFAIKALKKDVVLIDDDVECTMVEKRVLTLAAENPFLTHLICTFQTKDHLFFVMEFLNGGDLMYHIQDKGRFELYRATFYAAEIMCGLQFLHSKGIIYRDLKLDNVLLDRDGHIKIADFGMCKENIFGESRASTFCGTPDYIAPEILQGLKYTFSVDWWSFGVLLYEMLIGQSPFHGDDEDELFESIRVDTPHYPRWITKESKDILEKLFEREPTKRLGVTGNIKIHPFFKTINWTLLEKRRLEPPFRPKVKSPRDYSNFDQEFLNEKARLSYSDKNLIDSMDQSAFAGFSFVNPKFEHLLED
Experimental: [The procedure below names another target; the source lists this target under the same test.] as §1

PKA = biological target: T10, PKA (Homo sapiens, UniProt P17612); assay: Kinase profiling
T10 construct: purchased Reaction Biology Corp
Experimental: [The procedure below names another target; the source lists this target under the same test.] as §1

PKCmu = biological target: T11, PKCmu (Homo sapiens, UniProt Q15139); assay: Kinase profiling
T11 construct: purchased Reaction Biology Corp
Experimental: [The procedure below names another target; the source lists this target under the same test.] as §1

CAMKIIa_alpha = biological target: T12, CAMKIIa_alpha (Homo sapiens, UniProt Q9UQM7); assay: Kinase profiling
T12 construct: purchased Reaction Biology Corp
T12 sequence (Q9UQM7 whole entry): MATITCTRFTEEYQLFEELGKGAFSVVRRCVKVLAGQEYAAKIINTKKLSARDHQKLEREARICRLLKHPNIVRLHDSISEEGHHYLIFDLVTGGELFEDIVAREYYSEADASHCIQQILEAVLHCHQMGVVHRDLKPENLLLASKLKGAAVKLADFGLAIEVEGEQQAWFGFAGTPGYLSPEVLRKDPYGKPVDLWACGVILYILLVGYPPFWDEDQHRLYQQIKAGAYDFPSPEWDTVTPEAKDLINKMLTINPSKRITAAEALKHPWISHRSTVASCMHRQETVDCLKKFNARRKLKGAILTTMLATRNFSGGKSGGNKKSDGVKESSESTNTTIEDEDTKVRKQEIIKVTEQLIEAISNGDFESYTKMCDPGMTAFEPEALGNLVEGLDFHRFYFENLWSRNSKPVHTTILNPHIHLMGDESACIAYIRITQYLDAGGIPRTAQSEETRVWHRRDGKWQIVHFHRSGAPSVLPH
Experimental: [The procedure below names another target; the source lists this target under the same test.] as §1

RSK1 = biological target: T13, RSK1 (Homo sapiens, UniProt Q15418); assay: Kinase profiling
T13 construct: purchased Reaction Biology Corp
T13 sequence (Q15418 whole entry): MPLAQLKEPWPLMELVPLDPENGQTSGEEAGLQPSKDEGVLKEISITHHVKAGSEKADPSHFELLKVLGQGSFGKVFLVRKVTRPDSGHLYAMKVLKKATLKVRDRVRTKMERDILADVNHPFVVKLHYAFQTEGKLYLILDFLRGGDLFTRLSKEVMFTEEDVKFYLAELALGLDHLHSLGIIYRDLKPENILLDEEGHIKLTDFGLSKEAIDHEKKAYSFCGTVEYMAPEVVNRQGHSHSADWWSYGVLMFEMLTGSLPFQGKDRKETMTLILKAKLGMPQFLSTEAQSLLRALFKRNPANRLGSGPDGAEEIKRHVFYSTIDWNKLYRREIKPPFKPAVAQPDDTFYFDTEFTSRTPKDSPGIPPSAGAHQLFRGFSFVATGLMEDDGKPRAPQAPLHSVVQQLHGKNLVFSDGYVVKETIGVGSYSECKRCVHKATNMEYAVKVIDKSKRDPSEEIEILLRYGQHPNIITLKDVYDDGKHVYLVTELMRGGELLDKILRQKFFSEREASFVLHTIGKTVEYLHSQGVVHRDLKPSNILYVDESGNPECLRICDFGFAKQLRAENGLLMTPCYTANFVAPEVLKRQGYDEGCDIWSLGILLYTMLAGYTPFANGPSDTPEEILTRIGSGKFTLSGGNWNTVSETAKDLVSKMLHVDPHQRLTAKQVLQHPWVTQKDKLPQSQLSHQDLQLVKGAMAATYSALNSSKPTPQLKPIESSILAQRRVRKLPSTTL
Experimental: [The procedure below names another target; the source lists this target under the same test.] as §1

pIC50 (PKCε (h)): 6.00 to 8.00
pIC50 (PKCbeta1): < 4.70
pIC50 (PKCbeta2): < 4.70
pIC50 (FYN): < 4.70
pIC50 (PDPK1): < 4.70
pIC50 (PKCeta): < 4.70
pIC50 (ROCK1): < 4.70
pIC50 (PKCgamma): < 4.70
pIC50 (PKCdelta): < 4.70
pIC50 (PKA): < 4.70
pIC50 (PKCmu): < 4.70
pIC50 (CAMKIIa_alpha): < 4.70
pIC50 (RSK1): < 4.70
SMILES: O=C(NCCCN1CCCC1)c1ccc(/C=C2\Sc3ccccc3N(Cc3ccccc3F)C2=O)cc1 [Compound 481, 4-{(Z/E)-[4-(2-fluorobenzyl)-3-oxo-3,4-dihydro-2H-1,4-benzothiazin-2-ylidene]methyl}-N-[3-(pyrrolidin-1-yl)propyl]benzamide]
